Experimental data taken from ChEMBL document CHEMBL1201862, “PubChem BioAssay data set” (2004).
Active and inactive are the calls of the source.

What was measured:
Assay type in all cases: functional
[1] = target: T1, Tyrosine-protein phosphatase non-receptor type 22 (Homo sapiens, UniProt Q9Y2R2); experiment: PTPN22 enzyme inhibitors – biochemical, fluorescence, LYP catalytic domain, selectivity assay for LMPTP inhibitor project, dose response (AID 652006); settings: read-out: IC50_Mean
T1 sequence (Q9Y2R2 whole entry): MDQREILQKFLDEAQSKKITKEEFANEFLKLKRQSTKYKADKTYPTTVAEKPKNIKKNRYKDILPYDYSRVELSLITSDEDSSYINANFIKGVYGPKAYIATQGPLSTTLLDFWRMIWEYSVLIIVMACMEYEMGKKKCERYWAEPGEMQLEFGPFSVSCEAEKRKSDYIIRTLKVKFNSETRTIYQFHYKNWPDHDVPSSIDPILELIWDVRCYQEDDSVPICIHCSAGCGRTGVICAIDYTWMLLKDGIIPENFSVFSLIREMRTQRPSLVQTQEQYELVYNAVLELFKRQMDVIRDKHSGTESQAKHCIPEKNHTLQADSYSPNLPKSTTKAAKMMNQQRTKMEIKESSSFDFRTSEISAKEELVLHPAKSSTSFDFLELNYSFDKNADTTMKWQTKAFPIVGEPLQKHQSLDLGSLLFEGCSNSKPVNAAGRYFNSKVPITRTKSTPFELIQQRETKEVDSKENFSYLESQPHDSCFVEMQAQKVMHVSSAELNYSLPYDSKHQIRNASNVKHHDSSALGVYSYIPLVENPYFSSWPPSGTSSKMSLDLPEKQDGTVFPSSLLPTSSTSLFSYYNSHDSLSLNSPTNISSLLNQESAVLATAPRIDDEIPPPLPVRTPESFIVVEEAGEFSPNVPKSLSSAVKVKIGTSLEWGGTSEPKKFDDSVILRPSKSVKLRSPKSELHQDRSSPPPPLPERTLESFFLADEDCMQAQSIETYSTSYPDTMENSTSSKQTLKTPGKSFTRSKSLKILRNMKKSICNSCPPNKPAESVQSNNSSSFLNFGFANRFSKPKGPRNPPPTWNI

[2] = target: Low molecular weight phosphotyrosine protein phosphatase (Homo sapiens, UniProt P24666); settings: read-out: IC50_Mean;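 note: Dose-response confirmation assay measuring inhibition of LMPTP enzyme activity by fluorescence intensity read-out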
[3] = target: T2, Carboxy-terminal domain RNA polymerase II polypeptide A small phosphatase 1 (Homo sapiens, UniProt Q9GZU7); experiment: CTDSP1 inhibitors, concentration-response, biochemical, absorbance readout, ultra-high-throughput screen actives (AID 540297)
T2 sequence (Q9GZU7 whole entry): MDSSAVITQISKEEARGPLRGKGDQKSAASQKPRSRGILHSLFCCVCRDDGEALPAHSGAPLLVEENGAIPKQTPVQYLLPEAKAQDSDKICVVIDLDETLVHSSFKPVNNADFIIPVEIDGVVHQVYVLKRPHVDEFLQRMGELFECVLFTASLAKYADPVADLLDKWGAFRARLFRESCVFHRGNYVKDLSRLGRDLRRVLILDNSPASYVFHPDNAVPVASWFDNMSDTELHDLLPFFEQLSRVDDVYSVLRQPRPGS

[4] = target: T3, ATP-dependent translocase ABCB1 (Homo sapiens, UniProt P08183); experiment: inhibition of BCRP-mediated JC-1 efflux – Ig-MXP3 cells, flow cytometry, set 2, dose response (AID 504566); settings: read-out: EC50_MICROM_;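 note: flow cytometry median green fluorescence of retained JC-1 dye; potency of efflux pump inhibition measured as rising substrate retention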
[5] = target: T3, ATP-dependent translocase ABCB1; experiment: P-gp JC-1 efflux blockade concentration-response – Jurkat-DNR cells, flow cytometry, set 2, dose response (AID 504569); settings: read-out: EC50_MICROM_;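 note: potency of pump inhibitors that raise cellular JC-1 green fluorescence up to the nicardipine level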

T3 sequence (P08183 whole entry): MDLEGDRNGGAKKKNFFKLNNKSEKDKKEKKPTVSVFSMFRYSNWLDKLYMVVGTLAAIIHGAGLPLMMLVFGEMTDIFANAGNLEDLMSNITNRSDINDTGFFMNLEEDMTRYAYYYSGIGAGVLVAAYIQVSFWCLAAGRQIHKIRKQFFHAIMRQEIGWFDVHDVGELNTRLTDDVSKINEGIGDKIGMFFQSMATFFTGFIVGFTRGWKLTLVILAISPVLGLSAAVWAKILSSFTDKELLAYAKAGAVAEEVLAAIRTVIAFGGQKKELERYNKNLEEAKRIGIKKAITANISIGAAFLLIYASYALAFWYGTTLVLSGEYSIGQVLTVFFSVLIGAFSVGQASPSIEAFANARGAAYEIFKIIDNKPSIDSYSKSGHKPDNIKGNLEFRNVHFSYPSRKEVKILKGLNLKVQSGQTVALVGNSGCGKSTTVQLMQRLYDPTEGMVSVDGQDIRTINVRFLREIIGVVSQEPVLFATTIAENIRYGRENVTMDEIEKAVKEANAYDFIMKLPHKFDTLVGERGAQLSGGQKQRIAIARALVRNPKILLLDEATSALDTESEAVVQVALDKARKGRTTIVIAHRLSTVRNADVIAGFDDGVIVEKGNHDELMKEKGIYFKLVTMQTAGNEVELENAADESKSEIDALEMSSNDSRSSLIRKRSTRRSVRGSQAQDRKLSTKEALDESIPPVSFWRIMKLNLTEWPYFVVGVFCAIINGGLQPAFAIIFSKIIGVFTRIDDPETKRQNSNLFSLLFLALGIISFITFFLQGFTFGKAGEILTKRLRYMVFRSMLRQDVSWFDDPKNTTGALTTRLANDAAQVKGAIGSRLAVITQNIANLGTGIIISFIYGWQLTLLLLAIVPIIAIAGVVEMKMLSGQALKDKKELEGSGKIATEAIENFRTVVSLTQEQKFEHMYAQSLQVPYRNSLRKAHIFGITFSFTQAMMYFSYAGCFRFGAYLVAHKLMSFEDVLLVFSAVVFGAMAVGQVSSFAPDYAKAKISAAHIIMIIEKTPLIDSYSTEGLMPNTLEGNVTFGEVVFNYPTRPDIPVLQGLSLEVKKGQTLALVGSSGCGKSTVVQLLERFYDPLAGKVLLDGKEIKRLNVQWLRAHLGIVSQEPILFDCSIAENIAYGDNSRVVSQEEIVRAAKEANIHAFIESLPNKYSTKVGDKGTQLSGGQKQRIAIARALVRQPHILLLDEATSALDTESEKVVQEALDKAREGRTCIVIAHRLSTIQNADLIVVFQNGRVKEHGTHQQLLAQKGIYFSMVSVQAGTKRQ
Low molecular weight phosphotyrosine protein phosphatase, sequence (P24666 whole entry, the tested form may be a part): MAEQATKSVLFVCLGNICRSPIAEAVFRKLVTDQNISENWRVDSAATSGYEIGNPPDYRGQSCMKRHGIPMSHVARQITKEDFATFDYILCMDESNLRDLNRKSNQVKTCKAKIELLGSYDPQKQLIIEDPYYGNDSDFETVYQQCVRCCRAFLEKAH

IC50 [1]	IC50 [2]	IC50 [3]	EC50 [4]	EC50 [5]	Structure (SMILES)
55.6 µM (inactive)	21 µM (inactive)	4.44 µM (active)			NC(=O)Cc1ccc(C(=O)CSc2nnc(-c3ccncc3)n2C2CC2)s1
			4.95 µM (active)	5.56 µM (active)	Cc1ccc(-c2cc3nc(C)cc(N4CCN(C(=O)c5ccoc5)CC4)n3n2)cc1
